Laboratory results taken from patent US4173654A, “Novel fluorohydrocarbons” (California Institute of Technology, priority 1977, dated 1979).
Like-named read-outs stand apart in the source and are kept apart here.

Key:
[1] = Literature values or other data (D, V, δ, BP); assay type: physicochemical
[2] = Oxygen solubility measured by gas chromatograph having a thermal conductivity detector; assay type: physicochemical; conditions: 25° C., 760 mm O2 pressure
Description: Oxygen solubilities were measured at 25° C. and 760 mm O2 pressure for representative hybrid, fluoroolefin and prior art compounds by means of a gas chromatograph having a thermal conductivity detector and calculated from molar volume and ΔH(vap) by the method of Fedors (Polymer, Engr. Sci. 14 147 (1974). Good agreement was obtained as shown in the following table: […]

[3] = 3M data; cited from earlier work

| BP ([1]; 36mm) | Structure (SMILES) | D ([1]; unit not given) | V ([1]; unit not given) | δ ([1]; unit not given) | Measured O2 Solubility [2] | BP ([1]; 735mm) | D [1] | V [1] | δ [1] | BP ([1]; 750mm) | 3M solubility data (Literature Values) [3] |
| --- | --- | --- | --- | --- | --- | --- | --- | --- | --- | --- | --- |
| 53 °C | CCOC(=O)CC(C(F)(F)F)(C(F)(F)F)C(F)(F)F | 1.4895 | 205.5 | 7.39 | 34.4 cc O2 /100 cc FC |  |  |  |  |  |  |
|  | FC(F)(F)C(=C(C(F)(C(F)(F)F)C(F)(F)F)C(F)(C(F)(F)F)C(F)(F)F)C(F)(F)F | 1.820 | 219.8 | 6.4 | 39.5 cc O2 /100 cc FC | 110 °C |  |  |  |  |  |
|  | CCCCC(C(F)(F)F)(C(F)(F)F)C(F)(F)F [(CF3)3 C(CH2)3 CH3] |  |  |  | 41.2 cc O2 /100 cc FC |  | 1.393 g/cc | 198.3 cc/mole | 5.98 Hb | 101.5 °C |  |
|  | C=CCC(C(F)(F)F)(C(F)(F)F)C(F)(F)F [(CF3)3 CCH2 CHCH2] | 1.442 | 180.31 | 6.0 | 48 cc O2 /100 cc FC | 76 °C |  |  |  |  |  |
|  | FC(F)(F)C(F)(F)C(F)(F)C(F)(F)N(C(F)(F)C(F)(F)C(F)(F)C(F)(F)F)C(F)(F)C(F)(F)C(F)(F)C(F)(F)F [(n-C4 F9)3 N(FC-43), reference compound] |  |  |  | 36.8 cc O2 /100 cc FC |  |  |  |  |  | 38.9 cc O2 /100ccFC |
